Reference: patent publication US9346809B2 (LEO PHARMA A/S, priority 2009, dated 2016)
Read-outs that look alike come from different tables or passages of the source.

Columns and labels:
Type in all cases: biochemical
[1] = biological target: T1, JAK3 (catalytic domain, His-tag) (Homo sapiens, UniProt P52333); assay: JAK kinase assay (HTRF, phosphorylation of TK substrate-biotin), JAK3; details: ATP at Km (2 μM), read-out: JAK3 kinase inhibitory activity (EC50 indicator)
T1 construct: All four purified enzymes contain only the catalytic domain; His (N); purchased Carna Biosciences, Inc; host or cells: baculovirus expression system
Outline: (§1)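 Per reaction, 5 ng JAK1, 0.1 ng JAK2, 0.3 ng JAK3 or 0.8 ng TYK2 (baculovirus-expressed catalytic domains) acted on 1 μM TK substrate-biotin at Km ATP for 20-30 min, RT. Phosphorylation measured by HTRF.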

[2] = biological target: T2, JAK2 (catalytic domain, His-tag) (Homo sapiens, UniProt O60674); assay: JAK kinase assay (HTRF, phosphorylation of TK substrate-biotin), JAK2; details: ATP at Km (4 μM), read-out: JAK2 kinase inhibitory activity (EC50 indicator)
T2 construct: All four purified enzymes contain only the catalytic domain; His (N); purchased Carna Biosciences, Inc; host or cells: baculovirus expression system
Outline: as §1

[3] = biological target: T3, TYK2 (aa 871-1187, catalytic domain, GST-tag) (Homo sapiens, UniProt P29597); assay: JAK kinase assay (HTRF, phosphorylation of TK substrate-biotin), TYK2; details: ATP at Km (13 μM), read-out: TYK2 kinase inhibitory activity (EC50 indicator)
T3 construct: JAK1 (aa 850-1154) and TYK2 (aa 871-1187) are expressed with an N-terminally fused GST-tag; GST (N); purchased Carna Biosciences, Inc; host or cells: baculovirus expression system
T3 sequence (P29597 871-1187): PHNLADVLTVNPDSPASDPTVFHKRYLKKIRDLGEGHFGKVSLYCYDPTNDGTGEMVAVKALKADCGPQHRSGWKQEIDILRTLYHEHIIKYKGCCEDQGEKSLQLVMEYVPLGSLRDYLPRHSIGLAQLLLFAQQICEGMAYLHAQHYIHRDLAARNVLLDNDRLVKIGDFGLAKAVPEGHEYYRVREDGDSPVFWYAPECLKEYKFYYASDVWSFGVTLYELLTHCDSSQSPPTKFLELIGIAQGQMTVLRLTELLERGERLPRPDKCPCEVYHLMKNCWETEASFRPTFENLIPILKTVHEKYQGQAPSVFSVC
Outline: as §1

[4] = biological target: T4, JAK1 (aa 850-1154, catalytic domain, GST-tag) (Homo sapiens, UniProt P23458); assay: JAK kinase assay (HTRF, phosphorylation of TK substrate-biotin), JAK1; details: ATP at Km (7 μM), read-out: JAK1 kinase inhibitory activity (EC50 indicator)
T4 construct: JAK1 (aa 850-1154) and TYK2 (aa 871-1187) are expressed with an N-terminally fused GST-tag; GST (N); purchased Carna Biosciences, Inc; host or cells: baculovirus expression system
Outline: as §1

T2 sequence (O60674 849-1124 limits assumed): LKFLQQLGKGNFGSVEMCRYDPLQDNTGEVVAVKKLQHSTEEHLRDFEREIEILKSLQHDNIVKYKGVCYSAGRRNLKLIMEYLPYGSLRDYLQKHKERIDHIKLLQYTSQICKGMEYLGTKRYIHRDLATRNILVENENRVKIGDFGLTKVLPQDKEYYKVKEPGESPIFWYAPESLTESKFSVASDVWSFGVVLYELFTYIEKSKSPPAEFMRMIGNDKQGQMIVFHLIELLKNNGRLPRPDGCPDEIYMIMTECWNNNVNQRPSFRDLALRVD
T1 sequence (P52333 822-1111 limits assumed): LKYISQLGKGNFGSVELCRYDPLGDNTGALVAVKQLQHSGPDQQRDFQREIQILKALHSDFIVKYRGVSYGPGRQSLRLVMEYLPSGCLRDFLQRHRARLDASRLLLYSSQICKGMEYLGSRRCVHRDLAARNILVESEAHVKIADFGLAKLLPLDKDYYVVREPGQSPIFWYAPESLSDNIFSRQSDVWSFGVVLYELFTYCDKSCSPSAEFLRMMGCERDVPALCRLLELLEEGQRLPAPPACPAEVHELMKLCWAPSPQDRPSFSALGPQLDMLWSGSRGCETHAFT
T4 sequence (P23458 850-1154): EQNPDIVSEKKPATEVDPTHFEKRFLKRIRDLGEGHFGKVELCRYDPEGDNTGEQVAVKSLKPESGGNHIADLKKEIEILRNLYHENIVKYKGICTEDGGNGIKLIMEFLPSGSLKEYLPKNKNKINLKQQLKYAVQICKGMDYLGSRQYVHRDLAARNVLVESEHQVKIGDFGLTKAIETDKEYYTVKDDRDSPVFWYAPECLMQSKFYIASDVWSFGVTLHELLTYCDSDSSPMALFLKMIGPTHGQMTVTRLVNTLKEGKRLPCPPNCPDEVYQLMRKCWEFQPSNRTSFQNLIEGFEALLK

SMILES | EC50 [1] [µM] | EC50 [2] [µM] | EC50 [3] [µM] | EC50 [4] [µM] | EC50 ([1]; HTRF assay) [µM] | EC50 ([2]; HTRF assay) [µM] | EC50 ([3]; HTRF assay) [µM] | EC50 ([4]; HTRF assay) [µM]
NS(=O)(=O)CCC(=O)N1CCN(c2ncnc3[nH]ccc23)CC12CC2 [Example 17, 3-Oxo-3-[7-(7H-pyrrolo[2,3-d]pyrimidin-4-yl)-4,7-diazaspiro[2.5]oct-4-yl]propane-1-sulfonic acid amide] | < 0.1 | < 0.1 | 0.1 to 0.5 | < 0.1 | – | – | – | –
N#CCCC(=O)N1CCN(c2ccnc3[nH]ccc23)CC12CC2 [Example 116, 4-Oxo-4-[7-(1H-pyrrolo[2,3-b]pyridin-4-yl)-4,7-diaza-spiro[2.5]oct-4-yl]-butyronitrile] | 0.1 to 0.5 | 0.1 to 0.5 | > 0.5 | 0.1 to 0.5 | – | – | – | –
CS(=O)(=O)c1ccc(C(=O)N2CCN(c3ncnc4[nH]ccc34)CC23CC3)cc1N1CCCC1 [Example 194, (4-Methanesulfonyl-3-pyrrolidin-1-yl-phenyl)-[7-(7H-pyrrolo[2,3-d]pyrimidin-4-yl)-4,7-diaza-spiro[2.5]oct-4-yl]-methanone] | 0.1 to 0.5 | < 0.1 | > 0.5 | < 0.1 | – | – | – | –
NS(=O)(=O)c1ccc(C(=O)N2CCN(c3ncnc4[nH]ccc34)CC23CC3)cc1 [Example 369, 4-[7-(7H-Pyrrolo[2,3-d]pyrimidin-4-yl)-4,7-diaza-spiro[2.5]octane-4-carbonyl]-benzenesulfonamide] | – | – | – | – | < 0.1 | < 0.1 | < 0.1 | < 0.1
O=C(c1cccc(-c2ccccc2)c1)N1[C@@H]2CC[C@@H]1CN(c1ncnc3[nH]ccc13)C2 [Example 178, Biphenyl-3-yl-[3-(7H-pyrrolo[2,3-d]pyrimidin-4-yl)-3,8-diaza-bicyclo[3.2.1]oct-8-yl]-methanone] | 0.1 to 0.5 | 0.1 to 0.5 | > 0.5 | 0.1 to 0.5 | – | – | – | –
O=C(c1cccc2cccnc12)N1CCN(c2ncnc3[nH]ccc23)CC12CC2 [Example 164, [7-(7H-Pyrrolo[2,3-d]pyrimidin-4-yl)-4,7-diaza-spiro[2.5]oct-4-yl]-quinolin-8-yl-methanone] | 0.1 to 0.5 | < 0.1 | > 0.5 | 0.1 to 0.5 | – | – | – | –
C#CCOC(=O)N1[C@@H]2CC[C@H]1CN(c1ncnc3[nH]ccc13)C2 [Example 59, 3-(7H-Pyrrolo[2,3-d]pyrimidin-4-yl)-3,8-diazabicyclo[3.2.1]octane-8-carboxylic acid prop-2-ynyl ester] | 0.1 to 0.5 | 0.1 to 0.5 | > 0.5 | 0.1 to 0.5 | – | – | – | –
O=C([C@H]1CCCc2ccccc21)N1CCN(c2ncnc3[nH]ccc23)CC12CC2 [Example 416, [7-(7H-Pyrrolo[2,3-d]pyrimidin-4-yl)-4,7-diaza-spiro[2.5]oct-4-yl]-(1,2,3,4-tetrahydro-naphthalen-1-yl)-methanone] | – | – | – | – | 0.1 to 0.5 | < 0.1 | > 0.5 | 0.1 to 0.5
N#Cc1ccc(C(=O)N2CCN(c3ncnc4[nH]ccc34)CC23CC3)cc1 [Example 15, 4-[7-(7H-Pyrrolo[2,3-d]pyrimidin-4-yl)-4,7-diazaspiro[2.5]octane-4-carbonyl]benzonitrile] | 0.1 to 0.5 | < 0.1 | 0.1 to 0.5 | < 0.1 | – | – | – | –
O=C(C1CCCO1)N1CCN(c2ncnc3[nH]ccc23)CC12CC2 (stereo not drawn) [Example 22, [7-(7H-Pyrrolo[2,3-d]pyrimidin-4-yl)-4,7-diazaspiro[2.5]oct-4-yl]-(tetrahydrofuran-2-yl)methanone] | 0.1 to 0.5 | < 0.1 | > 0.5 | 0.1 to 0.5 | – | – | – | –
N#Cc1cccc(CC(=O)N2CCN(c3ccnc4[nH]ccc34)CC23CC3)c1 [Example 236, 3-{2-Oxo-2-[7-(1H-pyrrolo[2,3-b]pyridin-4-yl)-4,7-diaza-spiro[2.5]oct-4-yl]-ethyl}-benzonitrile] | – | – | – | – | > 0.5 | > 0.5 | > 0.5 | > 0.5
COC(=O)c1cc2c(N3CCN(C(=O)C4(C#N)CC4)C4(CC4)C3)ncnc2[nH]1 [Example 336, 4-[4-(1-Cyano-cyclopropanecarbonyl)-4,7-diaza-spiro[2.5]oct-7-yl]-7H-pyrrolo[2,3-d]pyrimidine-6-carboxylic acid methyl ester] | – | – | – | – | > 0.5 | > 0.5 | > 0.5 | > 0.5
N#Cc1csc(C(=O)N2C3CCC2CN(c2ncnc4[nH]ccc24)C3)c1 [Example 199, 5-[3-(7H-Pyrrolo[2,3-d]pyrimidin-4-yl)-3,8-diaza-bicyclo[3.2.1]octane-8-carbonyl]-thiophene-3-carbonitrile] | < 0.1 | < 0.1 | 0.1 to 0.5 | < 0.1 | – | – | – | –
Cc1ccc2[nH]c(C(=O)N3C4CCC3CN(c3ncnc5[nH]ccc35)C4)cc2c1 [Example 200, (5-Methyl-1H-indol-2-yl)-[3-(7H-pyrrolo[2,3-d]pyrimidin-4-yl)-3,8-diaza-bicyclo[3.2.1]oct-8-yl]-methanone] | 0.1 to 0.5 | < 0.1 | > 0.5 | < 0.1 | – | – | – | –
O=C(c1ccc2cc[nH]c2c1)N1CCN(c2ncnc3[nH]ccc23)CC12CC2 [Example 36, (1H-Indol-6-yl)-[7-(7H-pyrrolo[2,3-d]pyrimidin-4-yl)-4,7-diazaspiro[2.5]oct-4-yl]methanone] | > 0.5 | 0.1 to 0.5 | > 0.5 | 0.1 to 0.5 | – | – | – | –
NC(=O)c1ccc(C(=O)N2CCN(c3ncnc4[nH]ccc34)CC23CC3)cc1 [Example 49, 4-[7-(7H-Pyrrolo[2,3-d]pyrimidin-4-yl)-4,7-diazaspiro[2.5]octane-4-carbonyl]benzamide] | 0.1 to 0.5 | < 0.1 | > 0.5 | < 0.1 | – | – | – | –
O=C(CCC(F)(F)F)N1[C@@H]2CC[C@H]1CN(c1ncnc3[nH]ccc13)C2 [Example 181, 4,4,4-Trifluoro-1-[3-(7H-pyrrolo[2,3-d]pyrimidin-4-yl)-3,8-diaza-bicyclo[3.2.1]oct-8-yl]-butan-1-one] | 0.1 to 0.5 | < 0.1 | 0.1 to 0.5 | < 0.1 | – | – | – | –
O=C(Cc1cccs1)N1[C@@H]2CC[C@H]1CN(c1ncnc3[nH]ccc13)C2 [Example 109, 1-[3-(7H-Pyrrolo[2,3-d]pyrimidin-4-yl)-3,8-diaza-bicyclo[3.2.1]oct-8-yl]-2-thiophen-2-yl-ethanone] | 0.1 to 0.5 | < 0.1 | > 0.5 | < 0.1 | – | – | – | –
O=C(c1cc(O)cs1)N1CCN(c2ncnc3[nH]ccc23)CC12CC2 [Example 385, (4-Hydroxy-thiophen-2-yl)-[7-(7H-pyrrolo[2,3-d]pyrimidin-4-yl)-4,7-diaza-spiro[2.5]oct-4-yl]-methanone] | – | – | – | – | < 0.1 | < 0.1 | < 0.1 | < 0.1
N#CCCC(=O)N1CCN(c2ncnc3[nH]ccc23)CC12CC2 [Example 167, 4-Oxo-4-[7-(7H-pyrrolo[2,3-d]pyrimidin-4-yl)-4,7-diaza-spiro[2.5]oct-4-yl]-butyronitrile] | < 0.1 | < 0.1 | 0.1 to 0.5 | < 0.1 | – | – | – | –
COc1cnc2[nH]ccc2c1N1CCN(C(=O)c2ccc(-c3ccccc3)s2)C2(CC2)C1 [Example 290, [7-(5-Methoxy-1H-pyrrolo[2,3-b]pyridin-4-yl)-4,7-diaza-spiro[2.5]oct-4-yl]-(5-phenyl-thiophen-2-yl)-methanone] | – | – | – | – | > 0.5 | > 0.5 | > 0.5 | > 0.5
